Reference: patent US20050054620A1, “Paricalcitol as a chemotherapeutic agent” (priority 2003, published 2005)
“Also recorded” adds a separate entry of the source.

Tests used:
NB-4 cells = experiment: Western blot of cell lysates; type: cell-based, human
Protocol: Western blot analysis was used to determine the levels of proteins involved in cell cycle and differentiation. For western blot analysis, cells were washed twice in PBS, suspended in lysis buffer [50 mM Tris (pH 8.0), 150 mM NaCl, 0.1% SDS, 0.5% sodium deoxycholate, 1% NP40, […] phenylmethylsulfonyl fluoride, […] aprotinin, […] pepstatin, and […] leupetin] and placed on ice for 30 min. After centrifugation at 15,000×g for 15 min at 4° C., the suspension was collected. Protein concentrations were quantitated using the Bio-Rad assay (Bio-Rad Labolatories, Hercules, Calif.). Whole lysates ([…]) were resolved by 4-15% SDS polyacrylamide gel, transferred to an immobilon polyvinylidene difuride membrane (Amersham Corp., Arlington Heights, Ill.), and probed sequentially with a number of antibodies (p21WAF1, p27KIP1, PTEN, and GAPDH, Santa Cruz Biotechnology Inc., Santa Cruz, Calif.). The blots were developed using the Supersignal West Pico Chemiluminescent Substrate Kit (Pierce, Rockford, Ill.).
Western blot analysis was performed as follows: cells were washed twice in PBS, suspended in lysis buffer (50 mM Tris at pH 8.0, 150 mM NaCl, 0.1% SDS, 0.5% sodium deoxycholate, 1% Nonidet P-40, phenylmethylsulfonyl fluoride at 100 μg/mL, aprotinin at 2 μg/mL, pepstatin at 1 μg/mL, and leupetin at 10 μg/mL), and placed on ice for 30 minutes. After centrifugation at 15,000×g for 15 minutes at 4° C., the suspension was collected. Protein concentrations were quantitated by using the Bio-Rad protein Assay Dye Reagent Concentrate (Bio-Rad Laboratories, Hercules, Calif.) according to the manufacture's recommendation. Whole cell lysates (40 μg) were resolved by SDS-polyacrylamide gel electrophoresis in a 4%-15% gel, transferred to a polyvinylidene difuride membrane (Immobilon, Amersham Corp., Arlington Heights, Ill.), and probed sequentially with antibodies against the following proteins: VDR, RXR, CEBPβ, Rb, Bcl-2, Bcl-XL, Bax, p-ERK, RARA, GAPDH (Santa Cruz Biotechnology Inc., Santa Cruz, CA). The blots were developed using the Supersignal West Pico Chemiluminescent Substrate Kit (Pierce, Rockford, Ill.).

HL-60 cells = experiment: CD14 expression by flow cytometry; type: cell-based, human; conditions: for cell surface CD14 expression: paricalcitol 0.01 μM, arsenic trioxide 0.8 μM, 3 days
Protocol: In order to measure cell surface CD14 antigen on HL-60 cells, promyelocytic leukemia cell line, HL-60, was treated with either 1,25(OH)2D3 or paricalcitol (10^−7M) for 4 days and examined for CD14 expression by flow cytometry using CD14 antibody (DAKO, Carpinteria, Calif.), as described previously (Hisatake et al., supra, 2001). Murine IgG1 antibody (DAKO) was used as a control.
Measurement of cell surface CD14 antigen on HL-60 cells by flow cytometry using CD14 antibody (DAKO, Carpinteria, Calif.), was determined as described previously (Hisatake et al. Blood 97:2427-2433 (2001)). Murine IgG1 antibody (DAKO) was used as a control.

NCI-H929 cells = experiment: Cell cycle analysis by flow cytometry; type: cell-based, human; conditions: for G0/G1 arrest / accumulation / sub-G1 population: 0.01 μM each, 3 days
Protocol: For cell cycle analysis, cells were exposed to 10^−7M 1,25(OH)2D3, 10^−7M paricalcitol or vehicle control for either 3 or 4 days. Total cells, both in suspension and adherent, were collected, washed, suspended in cold PBS. Then cells were fixed in 75% chilled methanol and stained with propidium iodine. Cell cycle status was analyzed on a Becton Dickinson Flow Cytometer.
HCI-H929 cells were cultured with either paricalcitol (10^−7M) or 1,25(OH)2D3 (10^−7M) for 72 hrs, harvested and stained with propidium iodine (PI). Control cells were treated with vehicle alone.

[1] = system: NB-4 myeloid leukemia cells; experiment: MTT assay; type: cell-based, human; conditions: 4 days exposure
[2] = humans, cited from earlier work
24-hydroxylase = biological target: T1, 24-hydroxylase (Homo sapiens, UniProt Q07973); experiment: 24-hydroxylase activity by level of 24.25(OH)2D3 in HL-60 cells; type: cell-based; parameters: endogenous in cells; host or cells: HL-60; conditions: paricalcitol 0.01 μM, arsenic trioxide 0.8 μM, 3 days
T1 sequence (Q07973 36-514): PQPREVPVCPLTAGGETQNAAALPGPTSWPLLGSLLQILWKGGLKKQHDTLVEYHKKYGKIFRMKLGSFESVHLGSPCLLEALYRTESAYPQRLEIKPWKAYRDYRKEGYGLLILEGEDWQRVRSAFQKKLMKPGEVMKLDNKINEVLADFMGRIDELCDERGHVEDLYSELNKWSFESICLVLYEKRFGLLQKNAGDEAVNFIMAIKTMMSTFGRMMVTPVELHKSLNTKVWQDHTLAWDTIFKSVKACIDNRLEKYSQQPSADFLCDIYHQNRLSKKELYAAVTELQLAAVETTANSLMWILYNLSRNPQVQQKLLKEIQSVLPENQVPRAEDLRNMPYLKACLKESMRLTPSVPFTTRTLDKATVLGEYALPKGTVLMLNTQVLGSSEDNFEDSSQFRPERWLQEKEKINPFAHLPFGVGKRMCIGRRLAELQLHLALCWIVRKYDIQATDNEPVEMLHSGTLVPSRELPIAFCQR
Protocol: HL-60 (A) and NB-4 (B) myeloid leukemia cell lines were treated with paricalcitol (0.01 μM for HL-60, 0.1 μM for NB-4) and/or arsenic trioxide (0.8 μM for HL-60, 0.6 μM for NB-4) for 3 days. Control cells were treated with vehicle alone. The levels of 24.25(OH)2D3 were measured by HPLC analysis.
The possibility that the arsenic trioxide inactivates the mitchondrial enzyme, 24-hydroxylase leading to an activation of the response of the cells to vitamin D was tested. The activity of 24-hydroxylase was examined by measuring its metabolite, 24.25(OH)2D3 by TLC analysis in leukemia cells. HL-60 and NB-4 myeloid leukemia cell lines were treated with paricalcitol (0.01 μM for HL-60, 0.1 μM for NB-4) and/or arsenic trioxide (0.8 μM for HL-60, 0.6 μM for NB-4) for 3 days. Control cells were treated with vehicle alone. Then the levels of 24.25(OH)2D3 were measured by TLC analysis. Paricalcitol alone increased the levels of 24.25(OH)2D3 in HL-60 and NB-4, while arsenic trioxide alone decreased its level compared to control cells (FIG. 11). […] The decrease of the levels of 24-hydroxylase by arsenic trioxide may explain the enhanced activity of paricalcitol by arsenic trioxide in leukemia cells.

In the case of `C[C@H](/C=C/[C@H](C)C(C)(C)O)[C@H]1CC[C@H]2/C(=C/C=C3C[C@@H](O)C[C@H](O)C3)CCC[C@]12C` [paricalcitol, 19-nor-1,25, (OH)2D3], the “induction of PTEN” value (NB-4 cells; 10^−7M, 72 hr) is reported as 25 fold, the “cells induced to express CD14” value (HL-60 cells; 10^−7M, 96 hrs) is reported as 65% and the “cell surface CD14 expression” value (HL-60 cells) is reported as “increased cell surface CD14”. The “G0/G1 arrest / accumulation” value (NCI-H929 cells) was “induced G0/G1 arrest”, the sub-G1 population (NCI-H929 cells) was “increased” and the “increase of accumulation in G1/G0 phase” value (NCI-H929 cells; 10^−7M, 72 hrs) was 7%. The “increase in apoptotic sub-G1 population” value (NCI-H929 cells; 10^−7M, 72 hrs, diluant control 4% sub-G1) was 21%, the “antiproliferative effect by MTT assay” value [1] was “suppressed the cell growth in a dose-dependent manner; also recorded: sensitive” and the dose safely given [2] was “up to 16.8 mg”. The hypercalcemia ([2]; compared with 1,25(OH)2D3) was “less likely to cause hypercalcemia” and the “levels of 24.25(OH)2D3” value (24-hydroxylase) was “increased”.
With arsenic trioxide the “protein level of PML-RAR” value (NB-4 cells; arsenic trioxide 0.6 μM, paricalcitol 0.1 μM, 3 days) was “decreased the protein level of PML-RAR”, the “cell surface CD14 expression” value (HL-60 cells) was “did not” and the “G0/G1 arrest / accumulation” value (NCI-H929 cells) was “induced G0/G1 arrest”. The sub-G1 population (NCI-H929 cells) was “increased”, the “antiproliferative effect by MTT assay” value [1] was “suppressed the cell growth in a dose-dependent manner” and the “levels of 24.25(OH)2D3” value (24-hydroxylase) was “decreased”.
